Measurements reported in patent US10131639B2, “Formulations of 2-(tert-butylamino)-4-((1R,3R,4R)-3-hydroxy-4methylcyclohexylamino)-pyrimidine-5-carboxamide” (Signal Pharmaceuticals, LLC, priority 2014, dated 2018).
Like-named read-outs stand apart in the source and are kept apart here.

Tests used:
[1] = Phase 1 study Part 1: plasma pharmacokinetics after multiple oral doses of Compound 1 as AIC (QD×6 days) in healthy subjects; format: in vivo, human; details: for AUC / concentration at 24 h / Cmax: geometric mean (geometric CV%); for AUC: read-out: AUC0-τ (τ = 24 hours); for concentration at 24 h: read-out: Cmin (plasma concentration at 24 hours postdose); for Cmax: healthy subjects
Experimental: Part 1 was an open label, multiple dose, three period, fixed sequence study to evaluate the effect of Compound 1 on JNK activity following UV irradiation.
On Day 1, after a minimum of an 8-hour fast, subjects received the first dose of Compound 1. All subjects received the following oral doses of Compound 1 in the fixed sequence below: • Treatment A: 60 mg Compound 1 as AIC, QD×6 days; • Treatment B: 160 mg Compound 1 as AIC, QD×6 days; and • Treatment C: 400 mg Compound 1 as AIC, QD×6 days.
All subjects received the following oral doses of Compound 1 as AIC: • Days 1 through 6: Treatment A: 60 mg Compound 1 AIC, QD×6 days; • Days 7 through 12: Treatment B: 160 mg Compound 1 AIC, QD×6 days; and • Days 13 through 18: Treatment C: 400 mg Compound 1 AIC, QD×6 days.
The treatments were administered in the morning following an overnight fast of at least 8 hours. All doses were administered with 240 mL of noncarbonated, room temperature water. Water was allowed as desired except for 1 hour before and 1 hour after drug administration. The first meal following the morning dose on the sixth day of each dosing period was 4 hours postdose. On all other dosing days, the next meal/snack was served after a minimum 2 hours after dosing.
Blood samples for Compound 1 plasma PK analysis were collected at the following time points on Days 6, 12, and 18: predose and 0.5, 2, 4, 6, 10, 12, and 24 hours postdose.
Concentrations of Compound 1 in plasma were measured using a validated liquid chromatography tandem mass spectrometry (LC-MS/MS) assay. In Part 2, concentrations of Compound 1 in whole blood were measured using a validated LC-MS/MS method.
Plasma and whole blood PK parameters were derived for Compound 1 by noncompartmental analysis. Actual sampling times were used in the calculation of PK parameters.
AUCτ: AUC from time zero to tau, where tau is the dosing interval.
Cmax: Maximum observed plasma concentration.
Cmin: Minimum observed plasma concentration.

[2] = system: UVB-induced phospho c-jun expression in skin; experiment: Phospho c-Jun immunohistochemistry of UVB-irradiated skin biopsies: quantitative analysis (integrated optical density); format: in vivo, human
From the text: A total of four skin biopsies were taken, one at baseline and one each on the sixth day of each treatment period.
On baseline (Day −1) and on the sixth day of each dosing period (Days 6, 12, and 18), the skin test sites were delineated on the subject's upper buttock between the beltline and the natal cleft on the right side. The right side of the buttock was divided into four different test sites, one site for 2×MED irradiation at baseline and each of the three dosing periods. Each test site was a minimum of 3 cm×3 cm. Subjects received 2×MED UV irradiation at baseline (Day −1) at approximately the same time that irradiation was scheduled on Days 6, 12, and 18, which was 2 hours postdose. Eight hours after UV irradiation (±10 minutes), a skin punch biopsy was taken from the UV exposure site. The biopsies were processed into tissue slides by a third party and analyzed by immunohistochemistry (IHC). This third party was blinded to the treatment periods (baseline and doses).
Phospho-c-Jun expression in biopsies was analyzed by IHC. Phospho-c-Jun IHC data were subjectively scored on a scale of 0 to 4 based on the intensity and number of epidermal keratinocyte nuclei stained within the tissue section by trained individuals blinded to treatment. The IHC was also analyzed by automated measurement of integrated optical density.
Phospho c-Jun IHC images were analyzed at Quintiles for integrated optical density of positive nuclear staining using Aperio imaging software (Leica Biosystems). The Phospho c-jun score (Optical Density Scale) reflects the percentage of nuclei with ‘3+’ staining intensity (the cutoff for determining positive staining) as determined by the Aperio nuclear phospho c-jun quantitative image analysis algorithm.

[3] = human, plasma, Treatment A: 60 mg as AIC, oral QD×6 days, N=15
[4] = human, plasma, Treatment B: 160 mg as AIC, oral QD×6 days, N=15
[5] = human, plasma, Treatment C: 400 mg as AIC, oral QD×6 days, N=15

C[C@@H]1CC[C@@H](Nc2nc(NC(C)(C)C)ncc2C(N)=O)C[C@H]1O [Compound 1, 2-(tert-butylamino)-4-((1R,3R,4R)-3-hydroxy-4-methylcyclohexylamino)-pyrimidine-5-carboxamide]
increase of systemic exposure (AUC and Cmax) with dose ([1]; dose increased from 60 mg to 400 mg, multiple oral doses): more than dose-proportional
half-life ([1]; human, plasma, oral, following multiple doses (60-400 mg QD), read-out: mean terminal half life): 14 to 21 h
AUC [1, 3]: 2290 ng·h/mL
concentration at 24 h [1, 3]: 22 ng/mL
Tmax ([1]; human, plasma, Treatment A: 60 mg as AIC, oral QD×6 days, median (minimum, maximum), N=15, read-out: Tmax): 1.95 h
AUC [1, 4]: 8560 ng·h/mL
concentration at 24 h [1, 4]: 65 ng/mL
Tmax ([1]; human, plasma, Treatment B: 160 mg as AIC, oral QD×6 days, median (minimum, maximum), N=15, read-out: Tmax): 1.95 h
AUC [1, 5]: 31300 ng·h/mL
concentration at 24 h [1, 5]: 212 ng/mL
Tmax ([1]; human, plasma, Treatment C: 400 mg as AIC, oral QD×6 days, median (minimum, maximum), N=15, read-out: Tmax): 1.97 h
Tmax ([1]; human, plasma, following single or multiple oral doses at the dose levels evaluated, postdose, read-out: median Tmax): 1 to 4 h
Cmax ([1]; human, Treatment A: 60 mg as AIC, oral QD×6 days, plasma, N=15): 419 ng/mL
Cmax ([1]; human, Treatment B: 160 mg as AIC, oral QD×6 days, plasma, N=15): 1460 ng/mL
Cmax ([1]; human, Treatment C: 400 mg as AIC, oral QD×6 days, plasma, N=15): 4460 ng/mL
change from baseline in phospho c-jun staining (integrated optical density) ([2]; 60 mg QD×6 days, biopsy 8 hours after 2×MED UVB): not decreased
percentage of subjects with a decrease in optical density score compared to baseline ([2]; 60 mg dose (4/14)): 29%
decrease from baseline in phospho c-jun staining (integrated optical density) ([2]; 160 mg QD×6 days, biopsy 8 hours after 2×MED UVB, p=0.18): 7.5%
percentage of subjects with a decrease in optical density score compared to baseline ([2]; 160 mg dose (11/13)): 85%
decrease from baseline in phospho c-jun staining (integrated optical density) ([2]; 400 mg QD×6 days, biopsy 8 hours after 2×MED UVB, p<0.0001): 29.5%
percentage of subjects with a decrease in optical density score compared to baseline ([2]; 400 mg dose (13/13)): 100%
inhibition of UVB-induced phospho c-jun expression in skin ([2]; 60, 160, 400 mg QD×6 days, automated quantitative image analysis): dose-dependent manner
